Legend:
[1] = tested on: DOHH2 cells; assay: CellTiter-Glo cell proliferation assay, DOHH2 cells; assay type: cell-based; settings: Homo sapiens, DOHH-2, 72 hours
Method: The CellTiter-Glo® Luminescent Cell Viability Assay (Promega, G7573) was used to study the cellular potency of disclosed compounds herein. The cells were harvested during the logarithmic growth period and counted with hemocytometer. The DOHH2 cells were seeded at 1.6*10^4 in 90 ul DMEM medium supplemented with 10% fetal bovine serum (FBS) (as RS4;11 cells were seeded at 4000 in 90 ul RPMI-1640 medium with 10% FBS) per well in 96-well plates and treated with 10 ul of a serial dilution of compounds disclosed herein (maximum concentration and dilution ratio determined by the results of pre-experiment may vary) for 72 hours in a 5% CO2 incubator at 37° C. Cell viability was assessed according to the manufacturer's recommendations. After the plates return to the room temperature, 100 ul of CellTiter-Glo® reagent was added to 100 ul of cell culture. The mixture was agitated on an orbital shaker for 2 minutes or placed it at room temperature for 10 minutes to allow cell lysis and stabilization of luminescent signals. Luminescent signals were recorded using Envision 2104 instrument. And GI50 values were then calculated.

[2] = molecular target: T1, BCL-2 (Homo sapiens, UniProt P10415); assay: HTRF BCL-2/BAK assay (Cisbio); assay type: binding; settings: recombinant human Tag1-BCL-2 2 nM, Tag2-BAK 10 nM
T1 construct: purchased Cisbio 63ADK000CB01PEG
Method: Then the pre-mixed anti-Tag1-Eu^3+ and anti-tag2-XL665 were added to the plate and further incubated at room temperature for another 2 hours. The signals ([…]) were read on Envision 2104 instrument. The IC50 for each compound was derived from fitting the signal of 665/615 nM to the increasing compound concentration.
Using the above assays, the following compounds were tested.

T1 sequence (P10415 whole entry): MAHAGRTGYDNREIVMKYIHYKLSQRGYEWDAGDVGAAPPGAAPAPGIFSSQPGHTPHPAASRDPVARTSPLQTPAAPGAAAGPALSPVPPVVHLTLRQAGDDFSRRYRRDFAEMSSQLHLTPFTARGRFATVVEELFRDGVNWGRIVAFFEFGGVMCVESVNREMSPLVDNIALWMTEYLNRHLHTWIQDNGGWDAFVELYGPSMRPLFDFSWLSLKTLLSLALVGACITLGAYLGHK

IC50 [2]	SMILES	GI50 [1]
20 to 200 nM	O=C(NS(=O)(=O)c1ccc(NCC2CCOCC2)c([N+](=O)[O-])c1)c1ccc(N2CC3(CCN(C4CCCc5ccccc54)CC3)C2)cc1Oc1cnc2[nH]ccc2c1 (centres unmarked) [Compound 92, 2-((1H-pyrrolo[2,3-b]pyridin-5-yl)oxy)-N-((3-nitro-4-(((tetrahydro-2H-pyran-4-yl)methyl)amino)phenyl)sulfonyl)-4-(7-(1,2,3,4-tetrahydronaphthalen-1-yl)-2,7-diazaspiro[3.5]nonan-2-yl)benzamide]	500 to 5000 nM
< 20 nM	O=C(NS(=O)(=O)c1ccc(NCC2CC3(CCC(O)CC3)C2)c([N+](=O)[O-])c1)c1ccc(N2CCN([C@@H]3CCCCc4c(Cl)cccc43)CC2)cc1Oc1cnc2[nH]ccc2c1 (stereo partly drawn) [Compound 134, (R)-2-((1H-pyrrolo[2,3-b]pyridin-5-yl)oxy)-4-(4-(1-chloro-6,7,8,9-tetrahydro-5H-benzo[7]annulen-5-yl)piperazin-1-yl)-N-((4-(((7-hydroxyspiro[3.5]nonan-2-yl)methyl)amino)-3-nitrophenyl)sulfonyl)benzamide]	< 50 nM
20 to 200 nM	O=C(NS(=O)(=O)c1ccc(NCC2CCOCC2)c([N+](=O)[O-])c1)c1ccc(N2CC3(CCN(C4CCCCc5ccccc54)C3)C2)cc1Oc1cnc2[nH]ccc2c1 (centres unmarked) [Compound 98, 2-((1H-pyrrolo[2,3-b]pyridin-5-yl)oxy)-N-((3-nitro-4-(((tetrahydro-2H-pyran-4-yl)methyl)amino)phenyl)sulfonyl)-4-(6-(6,7,8,9-tetrahydro-5H-benzo[7]annulen-5-yl)-2,6-diazaspiro[3.4]octan-2-yl)benzamide]	500 to 5000 nM
< 20 nM	O=C(NS(=O)(=O)c1ccc(NCC2CC3(CCC4(CC3)OCCO4)C2)c([N+](=O)[O-])c1)c1ccc(N2CCN([C@@H]3CCCCc4c(Cl)cccc43)CC2)cc1Oc1cnc2[nH]ccc2c1 [Compound 133, (R)-2-((1H-pyrrolo[2,3-b]pyridin-5-yl)oxy)-N-((4-(((8,11-dioxadispiro[3.2.47.24]tridecan-2-yl)methyl)amino)-3-nitrophenyl)sulfony1)-4-(4-(1-chloro-6,7,8,9-tetrahydro-5H-benzo[7]annulen-5-yl)piperazin-1-yl)benzamide]	< 50 nM
< 20 nM	O=C(NS(=O)(=O)c1ccc(NCC2CC3(CCN(S(=O)(=O)C4CC4)CC3)C2)c([N+](=O)[O-])c1)c1ccc(N2CCN([C@@H]3CCCCc4c(Cl)cccc43)CC2)cc1Oc1cnc2[nH]ccc2c1 [Compound 127, (R)-2-((1H-pyrrolo[2,3-b]pyridin-5-yl)oxy)-4-(4-(1-chloro-6,7,8,9-tetrahydro-5H-benzo[7]annulen-5-y1)piperazin-1-yl)-N-((4-(((7-(cyclopropylsulfonyl)-7-azaspiro[3.5]nonan-2-yl)methyl)amino)-3-nitrophenyl)sulfonyl)benzamide]	< 50 nM
< 20 nM	CC(C)(C)OC(=O)N1CC2CC1CC2CNc1ccc(S(=O)(=O)NC(=O)c2ccc(N3CCN([C@@H]4CCCCc5c(Cl)cccc54)CC3)cc2Oc2cnc3[nH]ccc3c2)cc1[N+](=O)[O-] (stereo partly drawn) [Compound 103, tert-butyl 5-(((4-(N-(2-((1H-pyrrolo[2,3-b]pyridin-5-yl)oxy)-4-(4-((R)-1-chloro-6,7,8,9-tetrahydro-5H-benzo[7]annulen-5-yl)piperazin-1-yl)benzoyl)sulfamoyl)-2-nitrophenyl)amino)methyl)-2-azabicyclo[2.2.1]heptane-2-carboxylate]	50 to 500 nM
20 to 200 nM	O=C(NS(=O)(=O)c1ccc(NCC2CCOCC2)c([N+](=O)[O-])c1)c1ccc(N2CC3(C2)CN(C2CCCc4ccccc42)C3)cc1Oc1cnc2[nH]ccc2c1 (centres unmarked) [Compound 96, 2-((1H-pyrrolo[2,3-b]pyridin-5-yl)oxy)-N-((3-nitro-4-(((tetrahydro-2H-pyran-4-yl)methyl)amino)phenyl)sulfonyl)-4-(6-(1,2,3,4-tetrahydronaphthalen-1-yl)-2,6-diazaspiro[3.3]heptan-2-yl)benzamide]	> 5000 nM
20 to 200 nM	O=C(NS(=O)(=O)c1ccc(NCC2CCOCC2)c([N+](=O)[O-])c1)c1ccc(N2CC3(CCN(C4CCCCc5ccccc54)CC3)C2)cc1Oc1cnc2[nH]ccc2c1 (centres unmarked) [Compound 97, 2-((1H-pyrrolo[2,3-b]pyridin-5-yl)oxy)-N-((3-nitro-4-(((tetrahydro-2H-pyran-4-yl)methyl)amino)phenyl)sulfonyl)-4-(7-(6,7,8,9-tetrahydro-5H-benzo[7]annulen-5-yl)-2,7-diazaspiro[3.5]nonan-2-yl)benzamide]	500 to 5000 nM
< 20 nM	O=C(O)CCN1CCC2(CC1)CC(CNc1ccc(S(=O)(=O)NC(=O)c3ccc(N4CCN([C@@H]5CCCCc6c(Cl)cccc65)CC4)cc3Oc3cnc4[nH]ccc4c3)cc1[N+](=O)[O-])C2 [Compound 126, (R)-3-(2-(((4-(N-(2-((1H-pyrrolo[2,3-b]pyridin-5-yl)oxy)-4-(4-(1-chloro-6,7,8,9-tetrahydro-5H-benzo[7]annulen-5-yl)piperazin-1-yl)benzoyl)sulfamoyl)-2-nitrophenyl)amino)methyl)-7-azaspiro[3.5]nonan-7-yl)propanoic acid]	< 50 nM

The next lines start with the compound.

SMILES	IC50 [2]	GI50 [1]
CC(=O)Nc1cccc2c1CCCCC2N1CCN(c2ccc(C(=O)NS(=O)(=O)c3ccc(NCC4CCOCC4)c([N+](=O)[O-])c3)c(Oc3cnc4[nH]ccc4c3)c2)CC1 (centres unmarked) [Compound 59, 2-((1H-pyrrolo[2,3-b]pyridin-5-yl)oxy)-4-(4-(1-acetamido-6,7,8,9-tetrahydro-5H-benzo[7]annulen-5-yl)piperazin-1-yl)-N-((3-nitro-4-(((tetrahydro-2H-pyran-4-yl)methyl)amino)phenyl)sulfonyl)benzamide]	< 20 nM	> 5000 nM
O=C(NS(=O)(=O)c1ccc(NCC2CCOCC2)c([N+](=O)[O-])c1)c1ccc(N2CCN(C3CCCCc4ccccc43)CC2)cc1Oc1cnc2[nH]ccc2c1 (centres unmarked) [Compound 6, 2-((1H-pyrrolo[2,3-b]pyridin-5-yl)oxy)-N-((3-nitro-4-(((tetrahydro-2H-pyran-4-yl)methyl)amino)phenyl)sulfonyl)-4-(4-(6,7,8,9-tetrahydro-5H-benzo[7]annulen-5-yl)piperazin-1-yl)benzamide]	< 20 nM	50 to 500 nM
Cc1nnc2n1CC(CNc1ccc(S(=O)(=O)NC(=O)c3ccc(N4CCN(C5CCCCc6c(Cl)cccc65)CC4)cc3Oc3cnc4[nH]ccc4c3)cc1[N+](=O)[O-])CC2 (centres unmarked) [Compound 57, 2-((1H-pyrrolo[2,3-b]pyridin-5-yl)oxy)-4-(4-(1-chloro-6,7,8,9-tetrahydro-5H-benzo[7]annulen-5-yl)piperazin-1-yl)-N-((4-(((3-methyl-5,6,7,8-tetrahydro-[1,2,4]triazolo[4,3-a]pyridin-6-yl)methyl)amino)-3-nitrophenyl)sulfonyl)benzamide]	< 20 nM	500 to 5000 nM
O=C(NS(=O)(=O)c1ccc(NCC2CCOCC2)c([N+](=O)[O-])c1)c1ccc(N2CC3(CCN(C4CCCc5ccccc54)C3)C2)cc1Oc1cnc2[nH]ccc2c1 (centres unmarked) [Compound 91, 2-((1H-pyrrolo[2,3-b]pyridin-5-yl)oxy)-N-((3-nitro-4-(((tetrahydro-2H-pyran-4-yl)methyl)amino)phenyl)sulfonyl)-4-(6-(1,2,3,4-tetrahydronaphthalen-1-yl)-2,6-diazaspiro[3.4]octan-2-yl)benzamide]	< 20 nM	500 to 5000 nM
O=C(NS(=O)(=O)c1ccc(NCC2CCOCC2)c([N+](=O)[O-])c1)c1ccc(N2CCN(C3CCCCc4c(Cl)cccc43)CC2)cc1Oc1cnc2[nH]ccc2c1 (centres unmarked) [Compound 27, 2-((1H-pyrrolo[2,3-b]pyridin-5-yl)oxy)-4-(4-(1-chloro-6,7,8,9-tetrahydro-5H-benzo[7]annulen-5-yl)piperazin-1-yl)-N-((3-nitro-4-(((tetrahydro-2H-pyran-4-yl)methyl)amino)phenyl)sulfonyl)benzamide]	< 20 nM	< 50 nM
O=C(NS(=O)(=O)c1ccc(NCC2CCOCC2)c([N+](=O)[O-])c1)c1ccc(N2CCN(C3CCCCc4ccc(-c5ccccc5)cc43)CC2)cc1Oc1cnc2[nH]ccc2c1 (centres unmarked) [Compound 22, 2-((1H-pyrrolo[2,3-b]pyridin-5-yl)oxy)-N-((3-nitro-4-(((tetrahydro-2H-pyran-4-yl)methyl)amino)phenyl)sulfonyl)-4-(4-(3-phenyl-6,7,8,9-tetrahydro-5H-benzo[7]annulen-5-yl)piperazin-1-yl)benzamide]	20 to 200 nM	500 to 5000 nM
O=C(NS(=O)(=O)c1ccc(NCC2CCOCC2)c([N+](=O)[O-])c1)c1ccc(N2CCN(C3CCc4ccccc43)CC2)cc1Oc1cnc2[nH]ccc2c1 (centres unmarked) [Compound 4, 2-((1H-pyrrolo[2,3-b]pyridin-5-yl)oxy)-4-(4-(2,3-dihydro-1H-inden-1-yl)piperazin-1-yl)-N-((3-nitro-4-(((tetrahydro-2H-pyran-4-yl)methyl)amino)phenyl)sulfonyl)benzamide]	20 to 200 nM	500 to 5000 nM

From patent US20240239792A1, “MODULATORS OF BCL-2 OR BCL-2/BCL-XL AND USES THEREOF” (APPICINE THERAPEUTICS (HK) LIMITED, priority 2021, published 2024)
